Experiments:
[1] = MTX 1 mg/kg or 50 mg/kg daily, short treatment durations (2-4 days)
Text: C57BL/6J mice (females, ages 6-16 weeks) were obtained from the UCSF Gnotobiotics core facility (gnotobiotics.ucsf.edu) and housed in gnotobiotic isolators for the duration of each experiment (Class Biologically Clean). […] Housing: Mice were co-housed in some experiments, distributed across multiple cages per treatment group, or individually housed. Individually housed mice were housed in Single Mouse Duplexed Cages (Thoren, Cat #15). Colonization: Mice were colonized with stool from human donors, either a healthy male donor or a treatment-naive (re-MTX) female and male donors with rheumatoid arthritis [as defined by American College of Rheumatology classification criteria, either (Arnett, F. C., et al. (1988), Arthritis Rheum 31, 315-324) or (Aletaha, D., et al. (2010), Arthritis Rheum 62, 2569-2581)]; samples obtained 1 month after starting MTX were used for “post-MTX” transplants. For colonization with a human microbiome, stool was diluted 1:10 g/mL in reduced PBS or saline and homogenized in an anaerobic chamber using pre-equilibrated reagents and supplies. Insoluble material was separated from supernatant by centrifugation at 50 g for 1 minute. Aliquots of supernatant (100-200 μl per mouse) were gavaged into mice. […] Mice were monitored and weighed daily during treatment. […]

[2] = test system: gut microbiome; test: RA patients on oral MTX: 16S-seq and metagenomic sequencing of stool at baseline and 1 month; clinical response; assay type: in vivo, human; conditions: for number of gene families differentially abundant over time: metagenomic sequencing n=17
Method: Consecutive patients from the New York University Langone Medical Center's rheumatology clinics and offices were screened for the presence of RA based on ACR criteria (Aletaha et al., 2010). After informed consent was signed, each patient's medical history (according to chart review and interview/questionnaire), diet, and medications were determined. A screening musculoskeletal examination and laboratory assessments were also performed or reviewed. All RA patients who met the study criteria were offered enrollment. The criteria for inclusion in the study required that patients meet the American College of Rheumatology/European League Against Rheumatism 2010 classification criteria for RA (Aletaha et al., 2010), including seropositivity for rheumatoid factor and/or anti-citrullinated protein antibodies, and that all subjects be age 18 years or older. New-onset RA was defined as disease duration of a minimum of 6 weeks and up to 6 months since diagnosis, and absence of any treatment with disease-modifying anti-rheumatic drugs, biologic therapy or steroids (ever). The exclusion criteria applied to all groups were as follows: recent (<3 months prior) use of any antibiotic therapy, current extreme diet (e.g., parenteral nutrition or macrobiotic diet), known inflammatory bowel disease, known history of malignancy, current consumption of probiotics, any gastrointestinal tract surgery leaving permanent residua (e.g., gastrectomy, bariatric surgery, colectomy), or significant liver, renal, or peptic ulcer disease. This study was approved by the Institutional Review Board of New York University School of Medicine protocols #09-0658 and as previously published (Scher et al., 2013). All new onset rheumatoid arthritis (NORA) patients were recruited using established protocols from a previously described study (Scher et al., 2013). Patients received oral MTX at standard of care doses as prescribed by their treating rheumatologists. Stool samples were collected at baseline and 1 month after MTX initiation and metadata were obtained at baseline and 4 months after therapy initiation. Clinical and demographic data was de-identified and recorded in RedCap by the designated study personnel. Clinical responder status (MTX-R) was defined a priori as any NORA patient whose DAS28 score was greater than 2 at baseline and improved by at least 1.8 by month 4 post-treatment. DNA was extracted from human fecal samples (n=23 patients, 46 stool samples) as previously described (Scher et al., 2013), using the MoBio Powersoil DNA extraction kit, based on cell membrane disruption by high-speed shaking in the presence of beads. The V4 hypervariable region of bacterial 16S ribosomal RNA (rRNA) was performed using a MiSeq […] platform (150-bp read length, paired-end protocol) at the New York University Genome Technology Center as previously described (Manasson et al., 2018). For each sample, fastq files are available in NCBI's Sequence Read Archive (SRA), accession number PRJNA656577.
Stool samples from 17 RA patients underwent DNA extraction using ZymoBIOMICS 96 MagBead DNA Kit (Cat #D4302) as per the manufacturer's protocol. Sequencing libraries were generated using the Nextera DNA Flex Library Kit (Illumina, #20018705) and Nextera Compatible Unique Dual Indices—Set A primers (Illumina, #20027213). Library concentrations were normalized using PicoGreen (Quant-It dsDNA; Life Technologies) and pooled for sequencing on the NovaSeq using S1 or S2 platform at the Chan Zuckerberg Biohub.
Reads that were not already demultiplexed were demultiplexed using QIIME (Caporaso et al., 2010) v1.9.1 (split_libraries_fastq.py). For all reads except NYU RA patient samples, QIIME2 (Bolyen et al., 2019)(v 2020.2) was used to trim reads, denoise the data, and create a feature table using the following commands: qiime cutadapt trim-paired, qiime dada2 denoise-paired, qiime feature-table filter-samples. […]

CN(Cc1cnc2nc(N)nc(N)c2n1)c1ccc(C(=O)N[C@@H](CCC(=O)O)C(=O)O)cc1 [MTX, methotrexate]
weight loss [1]: minimal weight loss | number of MTX responders (MTX-R) ([2]; 23 RA patients, decrease in DAS28 of ≥1.8 and continued oral MTX without added DMARDs or biologics): 8 | number of MTX non-responders (MTX-NR) ([2]; 23 RA patients, same response definition): 15 | number of KOs with significant differences in abundance ([2]; MTX-NR, q<0.25, MaAsLin2): 5 | number of gene families with significant differences in abundance ([2]; MTX-NR, q<0.25, MaAsLin2): 508 | number of gene families with significant shift ([2]; MTX-R, q<0.25, MaAsLin2): 2 | change in Bacteroidetes over time in MTX-R relative to MTX-NR ([2]; baseline vs 1 month, Wilcoxon rank-sum): significant decrease | richness, community structure, abundance of bacterial phyla, genera, or ASVs, pre- vs. post MTX ([2]; entire cohort n=23, baseline vs 1 month, oral MTX standard of care): no significant differences | number of gene families differentially abundant over time ([2]; MaAsLin2 q-value<0.25): 96 | number of gene families differentially abundant over time ([2]; nominal p-value<0.05): 6,409 | number of KEGG orthologs (KOs) differentially abundant ([2]; nominal p<0.05): 334 | number of KEGG orthologs (KOs) differentially abundant ([2]; q<0.25): 5

Reference: patent US20220160712A1, “METHODS OF TREATING RHEUMATOID ARTHRITIS AND FOR PREDICTING THE RESPONSE TO METHOTREXATE” (CHAN ZUCKERBERG BIOHUB, INC., priority 2020, published 2022)
